Experimental findings from patent US7871999B2, “Substituted thiazoles and their use for producing drugs” (Gruenenthal GmbH, priority 2005, dated 2011) are described below.

Where a name gives a salt, the structure may show the parent alone.

As a reminder, the inhibition is the share of the control response that was lost under treatment. A lower inhibition goes with a weak effect. In general, IC50 refers to the concentration needed to halve the response being measured. Low values mean higher potency, high ones lower potency.

For the assay, the target named is T1, mGluR5 receptor (Sus scrofa, UniProt I3LUI7).
T1 construct: pig brain hemispheres without medulla, cerebellum and pons ... differential centrifugation at 900×g and 40,000×g
Nature of the assay: Inhibition of [^3H]-MPEP binding in the mGluR5 receptor binding assay (pig brain homogenate). The conditions noted are these: 5 nM [^3H]-MPEP; for inhibition at 10 µM: 10 μM test compound. The procedure: I. Method for Determining the Inhibition of [^3H]-MPEP Binding in the mGluR5 Receptor Binding Assay […]
The batches are then filtered with the assistance of a Brandel Cell Harvester (Brandel, Robotic 9600 model) on Unifilter plates with glass filter mats (Perkin Elmer, order number 6005177) and then washed 3 times with buffer (as above) using 250 μl per sample. The filter plates are then dried for 60 min at 55° C. Then 30 μl of Ultima Gold™ scintillating material (Packard BioScience, order number 6013159) is added per well and after 3 hours the samples are measured using the β counter (Microbeta, Perkin Elmer). Nonspecific binding is determined by the addition of 10 μM MPEP (Tocris, order number 1212).

T1 sequence (I3LUI7 1-1212): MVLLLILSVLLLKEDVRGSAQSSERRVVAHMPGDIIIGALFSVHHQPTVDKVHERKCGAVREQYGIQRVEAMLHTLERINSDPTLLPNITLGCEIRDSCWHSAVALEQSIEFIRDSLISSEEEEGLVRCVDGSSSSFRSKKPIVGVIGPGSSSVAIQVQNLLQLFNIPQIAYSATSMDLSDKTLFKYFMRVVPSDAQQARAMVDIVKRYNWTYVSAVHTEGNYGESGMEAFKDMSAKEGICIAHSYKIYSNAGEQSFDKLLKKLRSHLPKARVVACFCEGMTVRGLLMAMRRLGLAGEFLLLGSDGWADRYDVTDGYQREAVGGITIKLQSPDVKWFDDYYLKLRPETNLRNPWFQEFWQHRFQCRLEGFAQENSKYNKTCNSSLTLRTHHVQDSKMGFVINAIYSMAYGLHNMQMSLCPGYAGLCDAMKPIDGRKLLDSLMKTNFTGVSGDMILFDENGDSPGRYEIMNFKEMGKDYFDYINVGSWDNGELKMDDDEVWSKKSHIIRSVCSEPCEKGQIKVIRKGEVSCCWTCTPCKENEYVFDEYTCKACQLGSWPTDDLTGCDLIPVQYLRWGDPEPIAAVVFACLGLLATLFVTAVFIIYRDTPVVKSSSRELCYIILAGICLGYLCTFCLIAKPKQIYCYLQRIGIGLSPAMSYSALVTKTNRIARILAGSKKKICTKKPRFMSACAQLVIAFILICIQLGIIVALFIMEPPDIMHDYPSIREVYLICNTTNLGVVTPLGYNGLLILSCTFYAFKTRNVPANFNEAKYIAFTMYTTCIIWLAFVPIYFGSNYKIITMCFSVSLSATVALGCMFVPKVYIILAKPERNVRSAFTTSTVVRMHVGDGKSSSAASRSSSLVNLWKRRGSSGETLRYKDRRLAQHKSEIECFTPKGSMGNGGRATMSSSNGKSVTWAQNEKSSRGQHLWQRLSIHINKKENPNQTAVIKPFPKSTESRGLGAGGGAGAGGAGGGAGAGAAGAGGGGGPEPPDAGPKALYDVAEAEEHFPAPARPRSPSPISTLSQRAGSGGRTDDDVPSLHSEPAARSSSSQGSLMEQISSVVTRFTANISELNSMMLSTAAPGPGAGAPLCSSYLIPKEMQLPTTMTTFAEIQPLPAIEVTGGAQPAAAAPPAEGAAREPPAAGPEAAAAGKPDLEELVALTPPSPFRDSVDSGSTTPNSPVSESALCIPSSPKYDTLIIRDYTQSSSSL

In turn, `O=C(C#Cc1ccccc1)NC1CCN(c2nccs2)C1` (stereo not shown) [Example 1, 3-Phenyl-N-(1-(thiazol-2-yl)pyrrolidin-3-yl)propiolamide] displayed an inhibition at 10 µM of 66%.

`CN(C(=O)C#Cc1ccccc1)C1CCN(c2nccs2)C1` (stereo not shown) [Example 2, N-methyl-3-phenyl-N-(1-(thiazol-2-yl)pyrrolidin-3-yl)propiolamide hydrochloride] had an IC50 of 1320 nM.

In turn, `O=C(C#Cc1ccccc1)N1CCCN(c2nccs2)CC1` [Example 3, 1-Thiazol-2-yl-4-(3-phenylpropioloyl)-1,4-diazepane] displayed an IC50 of 590 nM. `O=C(C#Cc1ccccc1)NCCNc1nccs1` [Example 5, N-(2-((thiazol-2-yl)amino)ethyl)-3-phenylpropiolamide]: the half-maximal inhibitory concentration (IC50) was 1580 nM. `O=C(C#Cc1ccccc1)NC1CCCCC1Nc1nccs1` (stereo not shown) [Example 6, 3-phenyl-N-(2-(thiazol-2-ylamino)cyclohexyl)propiolamide] showed an inhibition at 10 µM of 57%. As for `O=C(C#Cc1ccccc1)NC1CN(c2nccs2)C1` [Example 8, 3-Phenyl-N-(1-(thiazol-2-yl)azetidin-3-yl)propiolamide], the IC50 was 10200 nM. In turn, `CN(CCNc1nccs1)C(=O)C#Cc1ccccc1` [Example 10, N-methyl-N-(2-(thiazol-2-yl)amino)ethyl-3-phenylpropiolamide] displayed an IC50 of 1860 nM.

For the molecule `O=C(C#Cc1ccccc1)N1CCC(Nc2nccs2)C1` (stereo not shown) [Example 11, 3-(Thiazol-2-yl-amino)-1-(3-phenylpropioloyl)pyrrolidine], the IC50 stood at 2180 nM.

The molecule `CN(C(=O)C#Cc1ccccc1)C1CCCCC1N(C)c1nccs1` (stereo not shown) [Example 12, N-Methyl-N-(2-(methyl(thiazol-2-yl)amino)cyclohexyl)-3-phenylpropiolamide] returned an inhibition at 10 µM of 41%. In the case of `CN(CC(=O)N(C)c1nccs1)C(=O)C#Cc1ccccc1` [Example 14, N-Methyl-N-(2-(methyl(thiazol-2-yl)amino)-2-oxoethyl)-3-phenylpropiolamide], the IC50 turned out to be 4970 nM. The same measure, in the same setting: the value for `CN(C(=O)C#Cc1ccccc1)C1CCCN(c2nccs2)C1` (stereo not shown) [Example 16, N-methyl-N-(1-(thiazol-2-yl)piperidin-3-yl)-3-phenylpropiolamide] was 140 nM; that for `CN(CCN(C)c1nccs1)C(=O)C#Cc1ccccn1` [Example 17, N-Methyl-N-(2-(methyl(thiazol-2-yl)amino)ethyl)-3-(pyrid-2-yl)-propiolamide] was 1250 nM. Still for that read-out and setting: as for `CN(C(=O)C#Cc1ccccc1)C1CN(c2nccs2)C1` [Example 20, N-methyl-N-(1-(thiazol-2-yl)azetidin-3-yl)-3-phenylpropiolamide], the figure is 280 nM; as for `Cc1cccc(C#CC(=O)NCCN(C)c2nccs2)c1` [Example 21, N-(2-(methyl(thiazol-2-yl)amino)ethyl)-3-(tol-3-yl)-propiolamide], 8.3 nM. `CN(c1nccs1)C1CCN(C(=O)C#Cc2ccccc2)C1` (stereo not shown) [Example 22, 3-(Methyl(thiazol-2-yl)amino)-1-(3-phenylpropioloyl)pyrrolidine]: the IC50 came to 350 nM. On the same count and under the same terms, as for `CN(CCNC(=O)C#Cc1cccc(Cl)c1)c1nc2ccccc2s1` [Example 24, N-(2-(benzo[d]thiazol-2-yl(methyl)amino)ethyl)-3-(3-chlorophenyl)-propiolamide], the figure is 2780 nM.

With `CCOC(=O)c1cnc(N(C)CCNC(=O)C#Cc2cccc(Cl)c2)s1` [Example 25, N-(2-(methyl-(5-ethoxycarbonylthiazol-2-yl)amino)ethyl)-3-(3-chlorophenyl)-propiolamide], the IC50 amounted to 150 nM. In turn, `O=C(C#Cc1ccccc1)N1CCCC(Nc2nccs2)C1` (stereo not shown) [Example 27, 3-(thiazol-2-yl-amino)-1-(3-phenylpropioloyl)piperidine] displayed an inhibition at 10 µM of 19%. Take `CN(c1nccs1)C1CCCN(C(=O)C#Cc2ccccc2)C1` (stereo not shown) [Example 28, 3-(methyl-(thiazol-2-yl)-amino)-1-(3-phenylpropioloyl)piperidine]: the IC50 came to 1150 nM.
